# Source: patent publication US10011615B2, “Heterobicyclo-substituted [1,2,4]triazolo[1,5-c]quinazolin-5-amine compounds with A2A anatagonist properties” (Merck Sharp & Dohme Corp., priority 2012, dated 2018)
# Target: T1, human A2a receptor (Homo sapiens, UniProt P29274)
# T1 construct: purchased Perkin-Elmer RBHA2AM400UA; host or cells: HEK293 cell membranes
# Experiment: A2a receptor competition binding assay using Scintillation Proximity technology
# Conditions: membranes from HEK293 cells expressing human A2a receptor; 0.5 nM tritiated radioligand; SPA beads; 1 h room temperature
# Outline: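 Membranes of HEK293 cells expressing human A2a, pretreated with adenosine deaminase, incubated 1 h at room temperature with 0.5 nM tritiated pyrazolotriazolopyrimidine antagonist (final) and compound (3000 to 0.15 nM) on WGA SPA beads in Ca/Mg-free PBS with 10 mM MgCl2. Ki from EC50 via Cheng-Prusoff.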
# T1 sequence (P29274 whole entry): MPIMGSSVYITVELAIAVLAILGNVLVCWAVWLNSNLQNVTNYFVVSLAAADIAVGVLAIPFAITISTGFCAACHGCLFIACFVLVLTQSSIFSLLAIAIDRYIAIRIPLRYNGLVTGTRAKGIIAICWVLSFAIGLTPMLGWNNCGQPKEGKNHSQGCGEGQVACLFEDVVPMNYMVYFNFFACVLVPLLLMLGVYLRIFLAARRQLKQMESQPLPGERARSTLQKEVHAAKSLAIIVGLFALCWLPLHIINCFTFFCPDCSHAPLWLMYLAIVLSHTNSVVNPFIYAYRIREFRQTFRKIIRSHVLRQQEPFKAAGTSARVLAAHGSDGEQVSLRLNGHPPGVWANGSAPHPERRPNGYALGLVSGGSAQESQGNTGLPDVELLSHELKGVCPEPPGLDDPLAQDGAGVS
row,Structure (SMILES),EC50 [nM]
1,"COc1cccc2c1nc(N)n1nc(CCN3CCCn4nc(C)cc4C3)nc21 [Ex-60, 7-methoxy-2-(2-(2-methyl-7,8-dihydro-4H-pyrazolo[1,5-a][1,4]diazepin-5(6H)-yl)ethyl)-[1,2,4]triazolo[1,5-c]quinazolin-5-amine]",2.3
2,COc1cccc2c1nc(N)n1nc(CC(C)N3Cc4ccc(F)cc4C3)nc21 (stereo not shown) [Ex-114],4.3
3,"CCc1nnc2n1CCN(Cc1nc3c4cccc(OC)c4nc(N)n3n1)C2 [Ex-142, 2-((3-ethyl-5,6-dihydro-[1,2,4]triazolo[4,3-a]pyrazin-7(8H)-yl)methyl)-7-methoxy-[1,2,4]triazolo[1,5-c]quinazolin-5-amine]",350
4,"COc1cccc2c1nc(N)n1nc(CN3CCc4ccccc4CC3)nc21 [Ex-131, 2-((4,5-dihydro-1H-benzo[d]azepin-3(2H)-yl)methyl)-7-methoxy-[1,2,4]triazolo[1,5-c]quinazolin-5-amine]",16
5,COc1cccc2c1nc(N)n1nc(CCN3CCn4nc(C(F)(F)F)nc4C3)nc21 [Ex-11],2.7
6,COc1cccc2c1nc(N)n1nc(CCN3Cc4ccc(N5CCOCC5)nc4C3)nc21 [Ex-64],6.9
7,COc1cccc2c1nc(N)n1nc(CN3CCc4ccccc4C3)nc21 [Ex-121],0.8
8,"COc1cccc2c1nc(N)n1nc(CCN3CCc4[nH]nc(C(F)(F)F)c4C3)nc21 [Ex-38, 7-methoxy-2-(2-(3-(trifluoromethyl)-6,7-dihydro-1H-pyrazolo[4,3-c]pyridin-5(4H)-yl)ethyl)-[1,2,4]triazolo[1,5-c]quinazolin-5-amine]",2
9,"COc1cccc2c1nc(N)n1nc(CN3CCCc4cnccc43)nc21 [Ex-134, 2-((3,4-dihydro-1,6-naphthyridin-1(2H)-yl)methyl)-7-methoxy-[1,2,4]triazolo[1,5-c]quinazolin-5-amine]",6.7
10,"Cc1cccc2c1nc(N)n1nc(CCN3CCc4ccccc4C3)nc21 [Ex-90, 2-(2-(3,4-dihydroisoquinolin-2(1H)-yl)ethyl)-7-methyl-[1,2,4]triazolo[1,5-c]quinazolin-5-amine]",27.9
11,CC[C@@H](Cc1nc2c3cccc(OC)c3nc(N)n2n1)N1Cc2cccnc2C1 [Ex-113],22.8
12,"COc1cccc2c1nc(N)n1nc(C[C@@H](C)N3CCn4nc(C)cc4C3)nc21 [Ex-221, (R)-7-methoxy-2-(2-(2-methyl-6,7-dihydropyrazolo[1,5-a]pyrazin-5(4H)-yl)propyl)-[1,2,4]triazolo[1,5-c]quinazolin-5-amine]",3.9
13,Nc1nc2cc(F)ccc2c2nc(CCN3Cc4cccnc4C3)nn12 [Ex-92],73.7
14,COc1cccc2c1nc(N)n1nc(CN3CCn4c(nnc4SC)C3)nc21 [Ex-138],146
15,COc1cccc2c1nc(N)n1nc(CN3CCc4ccc(-c5ccc(F)c(F)c5)cc4C3)nc21 [Ex-168],4.3
16,"Nc1nc2c(Cl)cccc2c2nc(CCN3Cc4ccc(F)cc4C3)nn12 [Ex-80, 7-chloro-2-(2-(5-fluoroisoindolin-2-yl)ethyl)-[1,2,4]triazolo[1,5-c]quinazolin-5-amine]",12
17,"COc1cccc2c1nc(N)n1nc(CCN3CCc4nc(C(F)(F)F)[nH]c4C3)nc21 [Ex-16, 7-methoxy-2-(2-(2-(trifluoromethyl)-6,7-dihydro-3H-imidazo[4,5-c]pyridin-5(4H)-yl)ethyl)-[1,2,4]triazolo[1,5-c]quinazolin-5-amine]",2.3
18,"COc1cccc2c1nc(N)n1nc(CCN3Cc4nc(C(C)C)sc4C3)nc21 [Ex-242, 2-(2-(2-isopropyl-4H-pyrrolo[3,4-d]thiazol-5(6H)-yl)ethyl)-7-methoxy-[1,2,4]triazolo[1,5-c]quinazolin-5-amine]",0.1
19,COc1cccc2c1nc(N)n1nc(CCN3Cc4ccc(N5CCOC(C)(C)C5)nc4C3)nc21 [Ex-68],7
20,"COc1cccc2c1nc(N)n1nc(CCN3Cc4ccc(Cl)nc4C3)nc21 [Ex-5, 2-(2-(2-chloro-5H-pyrrolo[3,4-b]pyridin-6(7H)-yl)ethyl)-7-methoxy-[1,2,4]triazolo[1,5-c]quinazolin-5-amine]",4.7
21,"COc1cccc2c1nc(N)n1nc(CCN3CCc4scnc4C3)nc21 [Ex-57, 2-(2-(6,7-dihydrothiazolo[4,5-c]pyridin-5(4H)-yl)ethyl)-7-methoxy-[1,2,4]triazolo[1,5-c]quinazolin-5-amine]",1.7

# The remaining compounds from weak to strong by EC50, led by results:
row,EC50 [nM],Structure (SMILES)
1,88.3,"CCOc1cccc2c1nc(N)n1nc(CN3Cc4cccnc4C3)nc21 [Ex-203, 2-((5H-pyrrolo[3,4-b]pyridin-6(7H)-yl)methyl)-7-ethoxy-[1,2,4]triazolo[1,5-c]quinazolin-5-amine]"
2,36.2,"COc1cccc2c1nc(N)n1nc(CC(=O)N3Cc4cccnc4C3)nc21 [Ex-77, 2-(5-amino-7-methoxy[1,2,4]triazolo[1,5-c]quinazolin-2-yl)-1-(5,7-dihydro-6H-pyrrolo[3,4-b]pyridin-6-yl)ethanone]"
3,14.8,COc1cccc2c1nc(N)n1nc(CCCN3Cc4ccc(F)cc4C3)nc21 [Ex-229]
4,6.8,COc1cccc2c1nc(N)n1nc(CCN3Cc4ccc(N5CCN(CC6CC6)CC5)nc4C3)nc21 [Ex-70]
5,6.7,"COc1cccc2c1nc(N)n1nc(CCN3CCc4[nH]ncc4C3)nc21 [Ex-36, 2-(2-(6,7-dihydro-1H-pyrazolo[4,3-c]pyridin-5(4H)-yl)ethyl)-7-methoxy-[1,2,4]triazolo[1,5-c]quinazolin-5-amine]"
6,6.1,"COc1cccc2c1nc(N)n1nc(CCN3CCc4ccc(-c5cncnc5)cc4C3)nc21 [Ex-172, 7-methoxy-2-(2-(7-(pyrimidin-5-yl)-3,4-dihydroisoquinolin-2(1H)-yl)ethyl)-[1,2,4]triazolo[1,5-c]quinazolin-5-amine]"
7,6,COc1cccc2c1nc(N)n1nc(CN3CCCc4ccc(C)nc43)nc21 [Ex-156]
8,5,COc1cccc2c1nc(N)n1nc(CCN3Cc4ccc(N5CCC(N6CCOCC6)CC5)nc4C3)nc21 [Ex-72]
9,4.3,"COc1cccc2c1nc(N)n1nc(CCN3CCc4cccnc4C3)nc21 [Ex-45, 2-(2-(5,6-dihydro-1,7-naphthyridin-7(8H)-yl)ethyl)-7-methoxy-[1,2,4]triazolo[1,5-c]quinazolin-5-amine]"
10,3,"CCN1CCN(c2ccnc3c2CCN(CCc2nc4c5cccc(OC)c5nc(N)n4n2)C3)CC1 [Ex-73, 2-(2-(4-(4-ethylpiperazin-1-yl)-5,6-dihydro-1,7-naphthyridin-7(8H)-yl)ethyl)-7-methoxy-[1,2,4]triazolo[1,5-c]quinazolin-5-amine]"
11,2.2,"COc1cccc2c1nc(N)n1nc(CCN3CCc4nc(C)oc4C3)nc21 [Ex-28, 7-methoxy-2-(2-(2-methyl-6,7-dihydrooxazolo[5,4-c]pyridin-5(4H)-yl)ethyl)-[1,2,4]triazolo[1,5-c]quinazolin-5-amine]"
12,2.2,"COc1cccc2c1nc(N)n1nc(CN3CCc4cc(Br)cnc43)nc21 [Ex-155, 2-((5-bromo-2,3-dihydro-1H-pyrrolo[2,3-b]pyridin-1-yl)methyl)-7-methoxy-[1,2,4]triazolo[1,5-c]quinazolin-5-amine]"
13,1.4,"COc1cccc2c1nc(N)n1nc(CCN3CCc4c(C(F)(F)F)n[nH]c4C3)nc21 [Ex-42, 7-methoxy-2-(2-(3-(trifluoromethyl)-4,5-dihydro-1H-pyrazolo[3,4-c]pyridin-6(7H)-yl)ethyl)-[1,2,4]triazolo[1,5-c]quinazolin-5-amine]"
